Experimental data as given in ChEMBL document CHEMBL4414658, “Melongenaterpenes A-L, Vetispirane-Type Sesquiterpenoids from the Roots of Solanum melongena” (J Nat Prod, 2019).
Active and inactive are the calls of the source.

Key:
Assay type in all cases: functional, cell-based
[1] = system: HepG2; experiment: Cytotoxicity against human HepG2 cells assessed as reduction in cell viability incubated for 24 hrs by MTT assay
[2] = system: HeLa; experiment: Cytotoxicity against human HeLa cells assessed as reduction in cell viability incubated for 24 hrs by MTT assay
[3] = system: MCF7; experiment: Cytotoxicity against human MCF7 cells assessed as reduction in cell viability incubated for 24 hrs by MTT assay

Measured: Activity

C=C(CO)[C@@H]1CC[C@]2(C1)[C@H](CO)C[C@@H](O)[C@H](O)[C@H]2C
inactive: all assays above

C=C(CO)[C@@H]1CC[C@]2(C1)[C@@H](CO)C[C@@H](O)[C@H](O)[C@H]2C
inactive: all assays above

C=C(CO[C@@H]1O[C@H](CO[C@@H]2OC[C@H](O)[C@H](O)[C@H]2O)[C@@H](O)[C@H](O)[C@H]1O)[C@@H]1CC[C@@]2(C1)C(C)=CC(=O)C[C@H]2C
inactive: all assays above

C=C(CO[C@@H]1O[C@H](CO)[C@@H](O)[C@H](O)[C@H]1O)[C@@H]1CC[C@]2(C1)[C@@H](C(OC)OC)C[C@@H](O)[C@H](O)[C@H]2C
inactive: all assays above

C=C(CO)[C@@H]1CC[C@]2(C1)[C@H](CO)C[C@@H](O)C[C@H]2C
inactive: all assays above

C=C(CO[C@@H]1O[C@H](CO)[C@@H](O)[C@H](O)[C@H]1O)[C@@H]1CC[C@@]2(C1)[C@H](C)[C@@H](O)[C@H](O)C[C@H]2C(OC)OC
inactive: all assays above
